Assay results published in article PMC4494349, “Epitope Prediction Assays Combined with Validation Assays Strongly Narrows down Putative Cytotoxic T Lymphocyte Epitopes” (Vaccines, 2015).

Assays:
H-2D^b = biological target: T1, H-2D^b (Mus musculus, UniProt P01899); test: MHC class I stabilization assay on RMA-S cells, H-2D^b surface expression; type: cell-based; settings: for H-2D^b binder class (weak, intermediate, strong) by stabilization of MHC class I on RMA-S cells: 10 μM (Figure 1a), in words; for MHC I Stabilization Assay, fluorescence index class, H-2D^b: RMA-S cells 26 °C 4 h then 37 °C 1 h, flow cytometry
T1 sequence (P01899 25-362): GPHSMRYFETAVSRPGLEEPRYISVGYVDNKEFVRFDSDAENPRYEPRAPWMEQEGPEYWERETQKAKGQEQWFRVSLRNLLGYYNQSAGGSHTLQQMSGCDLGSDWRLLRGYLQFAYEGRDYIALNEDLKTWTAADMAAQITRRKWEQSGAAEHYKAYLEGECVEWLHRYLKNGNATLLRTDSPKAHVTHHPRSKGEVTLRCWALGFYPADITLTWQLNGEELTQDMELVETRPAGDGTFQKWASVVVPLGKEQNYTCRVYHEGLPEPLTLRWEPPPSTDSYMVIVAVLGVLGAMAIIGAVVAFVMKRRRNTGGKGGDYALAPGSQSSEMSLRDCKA
T1 sequence (P01887 21-119 partner): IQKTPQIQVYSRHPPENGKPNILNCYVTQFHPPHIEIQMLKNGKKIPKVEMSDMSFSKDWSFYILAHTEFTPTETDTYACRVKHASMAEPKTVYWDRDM

H-2K^b = biological target: T2, H-2K^b (Mus musculus, UniProt P01901); test: MHC class I stabilization assay on RMA-S cells, H-2K^b surface expression; settings: for MHC I Stabilization Assay, fluorescence index class, H-2K^b: RMA-S cells 26 °C 4 h then 37 °C 1 h, flow cytometry
T2 sequence (P01901 22-369): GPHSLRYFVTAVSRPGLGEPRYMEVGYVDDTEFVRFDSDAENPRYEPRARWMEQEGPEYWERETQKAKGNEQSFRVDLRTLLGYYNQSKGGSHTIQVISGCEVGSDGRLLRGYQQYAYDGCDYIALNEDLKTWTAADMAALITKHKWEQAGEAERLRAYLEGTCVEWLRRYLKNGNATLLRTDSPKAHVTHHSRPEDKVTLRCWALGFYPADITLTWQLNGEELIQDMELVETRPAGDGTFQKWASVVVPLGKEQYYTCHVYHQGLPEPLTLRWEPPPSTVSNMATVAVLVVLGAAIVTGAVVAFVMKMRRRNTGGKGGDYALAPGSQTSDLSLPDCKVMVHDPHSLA
T2 sequence (P01887 21-119 partner): T1 sequence (P01887 21-119 partner)
Method: RMA-S cells were maintained in IMDM (Life Technologies, Bleiswijk, The Netherlands) supplemented with 10% FBS and 100 U/mL penicillin and 100 μg/mL streptomycin (Life Technologies). RMA-S cells were cultured at 26 °C for 48 h to induce expression of MHC class I molecules. Cells were then incubated with various concentrations of synthetic peptides at 26 °C for 4 h, followed by a 1-h culture at 37 °C. […] The surface expression of MHC class I molecules were analyzed by FACSCalibur cytometer (BD Biosciences, Breda, The Netherlands) and data analyzed with FlowJo software (Treestar, Ashland, OR, USA). Fluorescence index was calculated by dividing the median fluorescence intensity (MFI) value of cells incubated with SLPs by the MFI value of cells incubated with equivalent concentration of DMSO.

[1] = synthetic long peptides, peptide concentration 10 μM, FI = MFI peptide / MFI DMSO

LSQTKQSGENFPYLVAY [NS3_547-563]
H-2D^b binder class (weak, intermediate, strong) by stabilization of MHC class I on RMA-S cells (H-2D^b; synthetic long peptides): intermediate (0.5–1.5: intermediate binders (++)) | MHC I Stabilization Assay, fluorescence index class, H-2D^b (H-2D^b; [1]): ++ (0.5–1.5 ++)

AETTVRLRAYMNTPGLPV [NS3_507-524]
H-2D^b binder class (weak, intermediate, strong) by stabilization of MHC class I on RMA-S cells (H-2D^b; synthetic long peptides): strong (>1.5: strong binders (+++)) | MHC I Stabilization Assay, fluorescence index class, H-2D^b (H-2D^b; [1]): +++ (>1.5 +++)

SIINFEKL [OVA257-264]
Fluorescence index (FI), stabilization of H-2K^b (H-2K^b; short peptides at 100 μM, strong binders): > 8 | plateau of stabilization of H-2K^b molecules (H-2K^b; short peptides, up to high peptide concentration (100 μM)): not detectable | MHC I Stabilization Assay, fluorescence index class, H-2K^b (H-2K^b; short synthetic peptides, serially diluted (Figure 2b)): +++ (>8 +++) | MHC I Stabilization Assay, fluorescence index class, H-2D^b (H-2D^b; short synthetic peptides, serially diluted (Figure 2a)): ++ (0.5–1.5 ++)

VPAAYAAQGYKVLVL [NS3_214-228]
H-2K^b binder class (weak, intermediate, strong) by stabilization of MHC class I on RMA-S cells (H-2K^b; synthetic long peptides, 10 μM (Figure 1b), in words): weak (0.2–2: weak binders (+)) | MHC I Stabilization Assay, fluorescence index class, H-2K^b (H-2K^b; [1]): + (Fluorescence index of H-2K^b: 0.2–2 +) | H-2D^b binder class (weak, intermediate, strong) by stabilization of MHC class I on RMA-S cells (H-2D^b; synthetic long peptides): intermediate (0.5–1.5: intermediate binders (++)) | MHC I Stabilization Assay, fluorescence index class, H-2D^b (H-2D^b; [1]): ++ (0.5–1.5 ++)

ATPPGSVTVSHPNIEEVA [NS3_323-340]
H-2D^b binder class (weak, intermediate, strong) by stabilization of MHC class I on RMA-S cells (H-2D^b; synthetic long peptides): weak (0.2–0.5: weak binders (+)) | MHC I Stabilization Assay, fluorescence index class, H-2D^b (H-2D^b; [1]): + (Fluorescence index of H-2D^b: 0.2–0.5 +)

RLGAVQNEVTLTHPITKY [NS3_601-618]
H-2D^b binder class (weak, intermediate, strong) by stabilization of MHC class I on RMA-S cells (H-2D^b; synthetic long peptides): weak (0.2–0.5: weak binders (+)) | MHC I Stabilization Assay, fluorescence index class, H-2D^b (H-2D^b; [1]): + (Fluorescence index of H-2D^b: 0.2–0.5 +)

IQMYTNVDQDLVGWPA [NS3_72-87]
H-2D^b binder class (weak, intermediate, strong) by stabilization of MHC class I on RMA-S cells (H-2D^b; synthetic long peptides): weak (0.2–0.5: weak binders (+)) | MHC I Stabilization Assay, fluorescence index class, H-2D^b (H-2D^b; [1]): + (Fluorescence index of H-2D^b: 0.2–0.5 +)

ALGINAVAYYRGLDVSVI [NS3_383-400]
H-2D^b binder class (weak, intermediate, strong) by stabilization of MHC class I on RMA-S cells (H-2D^b; synthetic long peptides): intermediate (0.5–1.5: intermediate binders (++)) | MHC I Stabilization Assay, fluorescence index class, H-2D^b (H-2D^b; [1]): ++ (0.5–1.5 ++)
